The values below come from paper doi:10.1101/2025.11.04.686469, “Discovery of Host-Directed Small Molecules with Broad Anti-Leishmanial Efficacy” (bioRxiv, 2025).

In brackets after ≈: the same amount, converted by molar mass. Like-named read-outs stand apart in the source and are kept apart here.

The test system of test [1] is intracellular L. donovani amastigotes. Put plainly: Luminescent-based evaluation of intracellular anti-leishmanial activity in THP-1 macrophages. The settings on record: Leishmania donovani, THP-1; THP1 macrophages, luminescence assay, 72 hours of treatment; read-out: Intracellular L. donovani amastigotes Lum IC50. It counts as cell-based, Leishmania donovani. The essentials:
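PMA-differentiated THP-1 macrophages (150 nM, 72 h) were infected 18 h with firefly luciferase-expressing L. donovani LV82 promastigotes, then washed. Infected cells were treated with compounds at 0.1-10 μM for 72 h. Surviving intracellular amastigotes were quantified by firefly luciferase luminescence after cell lysis and 10 min substrate incubation at room temperature.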

Test [2] has as its system extracellular L. donovani promastigotes. Put plainly: Effect of compounds on promastigote viability (resazurin assay). Format: cell-based, Leishmania donovani. To be noted: for MIC50: Leishmania donovani, 72-hour incubation. Here is the method:
The effect of compounds on extracellular promastigotes was evaluated using a resazurin-based assay as described previously. In short, late log phase Leishmania promastigotes were seeded in a 96 well plate at 1 x 10^5 parasites per well and treated with drugs (0.5 – 200 μM) for 72 hours at 25°C. Ten microliters of resazurin (0.02% w/v) were added to the treated parasites to achieve a final concentration of 0.002% w/v and incubated for 24 hours. Viability of the promastigotes was assessed by fluorescence (excitation 544 nm, emission 590 nm, SpectraMax M2, Molecular Devices).

The next test has as its target T1, lysozyme (Homo sapiens, UniProt P61626).
T1 construct: endogenous in cells; host or cells: THP-1 cells differentiated with PMA and infected with L. mexicana promastigotes; cell lysate
T1 sequence (P61626 19-148): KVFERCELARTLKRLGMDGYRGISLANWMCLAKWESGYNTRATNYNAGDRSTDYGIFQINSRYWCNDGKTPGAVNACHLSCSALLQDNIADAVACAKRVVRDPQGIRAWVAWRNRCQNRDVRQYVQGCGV
Put plainly: Thermal proteome profiling in Leishmania infected macrophage lysate. It counts as binding. To be noted: ligand 100 μM. Here is the method:
To generate cell lysate, ten million THP-1 cells were plated overnight in a 10cm dish, then differentiated with 150 nM phorbol 12-myristate 13-acetate (PMA) for 72 hours. The resulting macrophages were infected with L. mexicana promastigotes at a multiplicity of infection of 10 and incubated for 18 hours. After infection, cells were washed three times with PBS to remove extracellular promastigotes. Cells were then collected by scraping and pelleted with centrifugation. The cell pellet was resuspended in phosphate buffered saline and subjected to five freeze-thaw cycles. Samples were centrifuged 14,000g x 10 minutes to remove cellular debris. Protein concentration of supernatant was determined by BCA assay and cell lysate was stored at −80 °C until further use.
The cell lysate was divided into two portions. One portion was spiked with the 197 ligand in DMSO to generate the with ligand sample; and the other portion was spiked with DMSO to generate the without ligand sample. The final concentration of […] in the with ligand sample was 100 μM, and both the without and with ligand samples contained 1% DMSO. The with and without samples were each subjected five replicate one-pot TPP analyses like that previously described.[20–22] […]

By IC50 is commonly meant the concentration that inhibits the measured activity by half. Usually MIC50 stands for an inhibitory concentration at the 50% level, which refers to growth in some studies and to a panel of isolates in others. As to `O=C(CNCc1cccc(F)c1)Nc1ccc(-n2cc(C(F)(F)F)nc2-c2ccc(-c3ccc(C(F)(F)F)cc3)cc2)cc1` [Compound 197], in test [1], the IC50 worked out at 2400 nM. In addition, the MIC50 in test [2] (resazurin assay (Table 3), read-out: L. donovani Extracellular promastigotes MIC50) came out at 6.4 µM (≈ 3.92 µg/mL); in test [2] (resazurin assay, read-out: Extracellular L. donovani promastigotes MIC50), 6.4 µM (≈ 3.92 µg/mL). The “direct effect on extracellular promastigote viability” value in test [2] (resazurin assay, strain not named for 53, L. donovani for 197) is “some direct reduction”. The “TPP z-score for lysozyme” value on lysozyme is 4.32.
